From article PMC6804140, “Peptidomic Approach for the Identification of Peptides with Potential Antioxidant and Anti-Hyperthensive Effects Derived From Asparagus By-Products” (Molecules, 2019)
Ends that are not written are not given here.

Molecular target: T1, ACE from rabbit lung (Oryctolagus cuniculus, UniProt P12822)
T1 construct: ACE from rabbit lung; purchased Sigma-Aldrich (St. Louis, MO, USA); host or cells: rabbit lung tissue
T1 sequence (P12822 34-1310): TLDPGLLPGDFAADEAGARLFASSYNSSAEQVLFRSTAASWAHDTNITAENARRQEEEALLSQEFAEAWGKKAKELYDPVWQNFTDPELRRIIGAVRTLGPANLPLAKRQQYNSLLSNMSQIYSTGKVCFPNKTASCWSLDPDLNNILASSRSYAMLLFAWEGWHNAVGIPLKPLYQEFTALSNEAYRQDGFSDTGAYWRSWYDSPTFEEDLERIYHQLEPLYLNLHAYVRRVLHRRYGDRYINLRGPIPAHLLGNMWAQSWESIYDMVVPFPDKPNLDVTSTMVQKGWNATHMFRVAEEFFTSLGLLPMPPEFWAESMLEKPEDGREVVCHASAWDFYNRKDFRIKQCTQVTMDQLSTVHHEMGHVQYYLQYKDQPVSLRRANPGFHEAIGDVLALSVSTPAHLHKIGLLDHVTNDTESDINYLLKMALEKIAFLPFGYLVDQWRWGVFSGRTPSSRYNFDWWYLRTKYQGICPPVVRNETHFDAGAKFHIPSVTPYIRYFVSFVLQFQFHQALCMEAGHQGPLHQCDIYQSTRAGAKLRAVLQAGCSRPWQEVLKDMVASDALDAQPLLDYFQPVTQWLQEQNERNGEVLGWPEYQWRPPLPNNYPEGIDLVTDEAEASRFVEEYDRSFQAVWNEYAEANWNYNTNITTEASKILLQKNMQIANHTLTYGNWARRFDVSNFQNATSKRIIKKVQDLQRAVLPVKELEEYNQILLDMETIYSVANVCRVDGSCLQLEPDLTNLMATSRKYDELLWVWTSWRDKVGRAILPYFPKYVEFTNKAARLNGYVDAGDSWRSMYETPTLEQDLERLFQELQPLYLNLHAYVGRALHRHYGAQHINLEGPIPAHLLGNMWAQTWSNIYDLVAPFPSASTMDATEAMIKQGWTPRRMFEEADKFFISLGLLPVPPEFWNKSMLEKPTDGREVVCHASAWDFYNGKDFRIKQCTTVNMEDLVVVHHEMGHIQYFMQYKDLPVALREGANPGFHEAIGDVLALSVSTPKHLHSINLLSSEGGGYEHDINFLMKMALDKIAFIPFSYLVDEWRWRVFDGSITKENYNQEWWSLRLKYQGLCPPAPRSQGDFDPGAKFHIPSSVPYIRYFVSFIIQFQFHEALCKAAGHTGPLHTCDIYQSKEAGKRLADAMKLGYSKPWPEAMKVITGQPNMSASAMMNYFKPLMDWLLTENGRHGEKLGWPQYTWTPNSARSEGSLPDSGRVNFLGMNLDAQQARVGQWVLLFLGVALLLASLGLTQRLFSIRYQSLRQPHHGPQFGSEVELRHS
Experiment: ACE-inhibitory assay
Format: biochemical
Details: synthetic peptide (90%); pH 8.3, 37 °C, 90 min, 228 nm; fit Origin 9.0; ± SD in Table 1; read-out: EC50 value, ACE inhibition assay

Row | Substance | EC50 [µM]
1 | ASQSIWLPGWL [ASQSIWLPGWL] | 4.02 ± 1.79
2 | PDWFLLL [PDWFLLL] | 5.74 ± 2.35
